According to publication PMC12655446, “Colon-Specific Delivery of Probenecid Enhances Therapeutic Activity of the Uricosuric Agent Against Rat Colitis” (Pharmaceutics, 2025):
“Also recorded” adds a separate entry of the source.

Columns and labels:
[1] = test system: dextran sulfate sodium-induced colitis; design: method as in PMID 40602551; conditions: mice, oral 100 mg/kg; cited from earlier work
Px-1 = test system: Px-1; design: method as in PMID 18596212; conditions: cited from earlier work
[2] = Distribution coefficient (log D6.8), isotonic phosphate buffer (pH 6.8)/n-octanol; type: physicochemical
Experimental: Distribution coefficients (log D6.8) of PBN, PBN-GA, and PBN-AA were measured using an isotonic phosphate buffer (pH 6.8)/n-octanol system, as described previously.

[3] = Chemical stability in HCl-NaCl buffer (pH 1.2) and isotonic phosphate buffer (pH 6.8); type: physicochemical
Experimental: The chemical stabilities of PBN-GA and PBN-AA were tested in HCl-NaCl buffer (pH 1.2) and isotonic phosphate buffer (pH 6.8). Changes in the concentrations of PBN-GA and PBN-AA were monitored by HPLC.

[4] = Incubation in small intestinal contents of rats; type: in vitro ADME, rat; conditions: 10 h
Experimental: Male Sprague-Dawley rats (250–260 g) were euthanized with CO2 prior to making a midline abdominal incision. The small intestinal contents were collected and suspended in isotonic phosphate buffer (pH 6.8) to prepare a 20% (w/v) suspension. PBN-GA (2 mM) was dissolved in 3 mL of isotonic phosphate buffer (pH 6.8), were mixed with 3 mL of the small intestinal suspension and incubated at 37 °C. A solution of PBN-AA was created with the same method. At designated time points, 0.5 mL of the reaction mixture was collected and centrifuged at 10,000× g at 4 °C for 10 min, and 0.1 mL of the supernatant was mixed with 0.9 mL of methanol. After vortexing and centrifugation under the same conditions, the final supernatant was filtered through a 0.45 μm membrane, and 20 μL of the filtrate was analyzed for PBN concentration by HPLC.

Caco-2 cell monolayer = assay: Cell permeability assay across Caco-2 cell monolayer; type: in vitro ADME; conditions: 500 μM apical, up to 24 h, apical to basolateral
Experimental: The cell permeabilities of PBN, PBN-GA, and PBN-AA were evaluated using a Caco-2 cell monolayer model. Caco-2 cells were seeded at a density of 4 × 10^5 cells per insert in Transwell 6-well plates with a pore size of 0.4 μm (SPL Life Sciences, Pocheon, Gyeonggi-do, Republic of Korea). The cells were cultured in Dulbecco’s modified eagle medium (DMEM) supplemented with 10% Fetal bovine serum (FBS) and 1% penicillin/streptomycin until the transepithelial electrical resistance (TEER) measured using an EMD Millipore system (Billerica, MA, USA) reached 2000 Ω·cm^2, indicating an intact monolayer.
For the transport study, the apical (donor) compartment was filled with 2 mL of DMEM without phenol red containing the test compounds (500 μM), and 3 mL of DMEM without phenol red was placed in the basolateral (acceptor) compartment. Samples were collected from the basolateral side at designated time intervals up to 24 h to determine the concentration of the permeated compounds using HPLC. Each experiment was performed in triplicate, and monolayer integrity was confirmed by maintaining TEER values above 2000 Ω·cm^2 before and after the assay.

[5] = PBN concentration in the cecum after oral gavage; type: in vivo; conditions: rat
Experimental: For cecal distribution studies, rats were orally administered PBN (30.0 mg/kg) or PBN-GA (43.6 mg/kg, equivalent to 30.0 mg/kg of PBN) in 1.0 mL PBS. At 2, 4, and 8 h post-dosing, the cecal contents were harvested and suspended in isotonic phosphate buffer (pH 6.8) to prepare 10% (w/v) homogenates. Quantitative analysis of PBN in the cecal suspensions was performed using HPLC, following the procedure described in Section 2.7.

DNBS-induced rat colitis = assay: Anticolitis effects in DNBS-induced rat colitis; type: in vivo
Experimental: Experimental colitis was induced in rats as previously described. Briefly, male Sprague–Dawley rats underwent to a 24 h fasting period with free access to water. Anesthesia was induced using 3% isoflurane and maintained at 2.5% in 1 L/min oxygen using a Small Animal O2 Single Flow Anesthesia System (LMS, Pyeongtaek, Republic of Korea). Once the animals no longer reacted to external tactile stimulation, a rubber cannula (2 mm outer diameter) was carefully inserted rectally, positioning the tip approximately 8 cm from the anus to target the splenic flexure. A solution of DNBS (48.0 mg) in 0.4 mL of 50% aqueous ethanol was then instilled into the colon via cannula to induce colitis.
Three days after the induction of colonic inflammation, the respective drugs were orally administered to the rats once daily for 6 consecutive days. The experimental scheme and treatment group assignments are shown in Supplementary Material S1. Colonic damage scores (CDS) were determined based on previously established scoring criteria. The scoring system is shown in Supplementary Material S2. Three independent observers blinded to the treatment groups conducted the CDS assessments. Myeloperoxidase (MPO) activity in the distal colon (4 cm) was determined as previously. One unit of MPO activity was defined as 1.0 μmol min^−1 of peroxide degradation at 25 °C.
Western blot analysis was performed on lysates derived from distal colon tissues following a previously established protocol. The detailed procedure is shown in Supplementary Material S3. Western blot images were quantified using Image Lab software (version 5.2 build 14; Bio-Rad, Hercules, CA, USA). Results are presented as the mean of the quantified values for each Western blot in the figures (n = 5).
The levels of inflammatory cytokine-induced neutrophil chemoattractant-3 (CINC-3) in the inflamed distal colon were determined using a CINC-3 enzyme-linked immunosorbent assay (ELISA) kit (R&D Systems, Minneapolis, MN, USA) as previously described.

[6] = oral once daily for 6 days, PBN-GA 21.8 and 43.6 mg/kg

logD [2]	change in concentration of the conjugate (stability) ([3]; buffer pH 1.2, 10 h)	change in concentration of the conjugate (stability) ([3]; buffer pH 6.8, 10 h)	change in concentration of the conjugate (stability) [4]	transport via the Caco-2 cell monolayer compared with PBN (Caco-2 cell monolayer)	Structure (SMILES)	other results
					N[C@@H](CCC(=O)O)C(=O)O [GA, glutamic acid]	effect on dextran sulfate sodium-induced colitis [1]: attenuates
0.3					CCCN(CCC)S(=O)(=O)c1ccc(C(=O)O)cc1 [PBN, Probenecid]	concentration required for significant inhibition of Px-1 (Px-1): 1 mM
-1.04	no significant change	no significant change	no significant change	lower transport	CCCN(CCC)S(=O)(=O)c1ccc(C(=O)N[C@@H](CC(=O)O)C(=O)O)cc1 [PBN-AA, aspartic acid-conjugated PBN]	
-1.22	no significant change	no significant change	no significant change	lower transport	CCCN(CCC)S(=O)(=O)c1ccc(C(=O)N[C@@H](CCC(=O)O)C(=O)O)cc1 [PBN-GA, glutamic acid-conjugated PBN]	amount of PBN detected in the cecum compared with oral PBN ([5]; oral 43.6 mg/kg (equivalent to 30.0 mg/kg PBN), 2, 4 and 8 h): much greater amount of PBN; amount of PBN in the large intestine relative to oral PBN ([5]; oral, all time points): ten-fold; CINC-3 level in inflamed colon (ELISA) (DNBS-induced rat colitis; [6]): dose-dependently diminished; COX-2 level in inflamed colon (Western blot) (DNBS-induced rat colitis; [6]): dose-dependently diminished; iNOS level in inflamed colon (Western blot) (DNBS-induced rat colitis; [6]): dose-dependently diminished; mucosal recovery (H&E staining of inflamed colon) (DNBS-induced rat colitis; [6]): more effective than PBN and SSZ; myeloperoxidase (MPO) activity in inflamed distal colon (DNBS-induced rat colitis; [6]): dose-dependently diminished; colonic tissue damage (colonic damage score, CDS) (DNBS-induced rat colitis; oral once daily for 6 days, PBN-GA 21.8 and 43.6 mg/kg, PBN 30.0 mg/kg, SSZ 50.0 mg/kg): greater with PBN-GA than with PBN; also recorded: more effective than SSZ; suppression of the inflammatory response compared with PBN and SSZ (DNBS-induced rat colitis; regardless of the dose of PBN-GA): more effective in suppressing the inflammatory response than PBN and SSZ
